{"source": "patent US20090061022A1", "about": "“Pharmaceutical composition comprising arsenite for the treatment of malignancy” (priority 2004, published 2009)", "key": {"ALL-SCID 4": {"system": "ALL-SCID 4", "assay": "Anticancer activity in human leukemia model ALL-SCID 4", "settings": "for BW loss % (day) / Drug-related deaths: days 34-54", "text": "Anticancer activity of the sodium meta-arsenite and arsenic trioxide against two human paediatric acute lymphoblastic leukemia (ALL) models in vivo, ALL-SCID 4 was investigated to compare.\nMale NOD/SCID mice (deficient in T and B lymphocytes, NK cells and functional macrophages) were transplanted s.c. on day 0 with fragments of ALL-SCID 4 cancers, which were obtained from mice used for routine passage of the cancers. Mice were randomized to the scheduled treatment groups.\nSodium meta-arsenite was administered orally at 2, 4 and 6 mg/kg/day (⅓ MTD, ⅔ MTD and MTD) once every day from day 34-54 after transplantation. The vehicle control (5% glucose in water) was administered i.p. (10 ml/kg).\nSodium meta-arsenite was dissolved in ready-to-use sterile infusion (5% (w/v) glucose in aqua injectabila). Arsenic trioxide was dissolved in 25 mM NaOH then dissolved in 5% glucose in aqua injectabila. The solutions were prepared freshly on the day of therapy for each administration."}, "RXF 944L": {"system": "RXF 944L", "assay": "Cytotoxic activity, propidium iodide fluorescence assay, panel of 9 human cancer cell lines", "format": "cell-based", "settings": "RXF 944L renal cancer, 3-7 days", "experimental": "(§1) Three kinds of stock solutions were prepared for in vitro cytotoxic activity test. The first solution is DMSO (dimethyl sulfoxide) mixed with sodium meta-arsenite. […] The third solution is DMSO mixed with arsenic acid sodium salt. Those three solutions were diluted with culture medium (RPMI 1640). The final concentrations of DMSO in those three solutions are less than 0.3 vol %.\n(§2) Nine kinds of human cancer cell lines out of six kinds of cancers were grown at 37° C. under a controlled atmosphere of 95% air and 5% CO2. The cells were grown on monolayer cultures of RPMI 1640 cell culture medium supplemented with 10% fetal calf serum.\n(§3) The grown cells were harvested from exponential phase cultures by trypsinization and counted. The counted cells were placed in a plate, which has ninety six wells. Each well on the plate is in a shape of a flat-bottomed microtitre. Density of the cells in a suspension was adjusted depending on the cell line. The suspension was prepared by diluting the grown cells with the culture medium (RPMI 1640). Concentration of the cells were varied from 5×10^4 to 1×10^5 viable cells/ml. 100 μl of the suspension was placed in each well of the plate. […] Then add 50 μl of culture medium (RPMI 1640) only to 6 wells, 50 μl/well, among the 96 wells of one plate. It is called controlled. One well is filled with culture medium plus 5-FU. And another 50 μl of culture medium plus one of the stock solutions were added to each of the left 89 wells to allow cells to resume exponential growth.\n(§4) The cytotoxic activity test was executed with three plates simultaneously to check reliability of the data obtained. The three plates contain the same samples of cancer cells. The three plates were then incubated for 3-7 days under the same controlled atmosphere and cell proliferation was assessed with a modified propodium iodide fluorescence assay. After thawing of the plates, fluorescence was measured using a Millipore Cytofluor 2350-microplate reader (excitation 530 nm emission 620 nm) in order to quantify the total cell number. The assay included untreated and positive controls containing 5-FU.\n(§5) Growth inhibition is defined as (numbers of cancer cell alive) treated (T)/(number of cells) control (C)×100% (T/C %)."}, "LXFL 529L": {"system": "LXFL 529L", "assay": "Cytotoxic activity, propidium iodide fluorescence assay, panel of 9 human cancer cell lines", "format": "cell-based", "settings": "LXFL 529L NSCLC, 3-7 days", "experimental": "as §1, §2, §3, §4, §5"}, "U937": {"system": "U937", "assay": "Cytotoxic activity, propidium iodide fluorescence assay, panel of 9 human cancer cell lines", "format": "cell-based", "settings": "U937 lymphoma, 3-7 days", "experimental": "as §1, §2, §3, §4, §5"}, "CCRF-CEM": {"system": "CCRF-CEM", "assay": "Cytotoxic activity, propidium iodide fluorescence assay, panel of 9 human cancer cell lines", "format": "cell-based", "settings": "CCRF-CEM leukemia, 3-7 days", "experimental": "as §1, §2, §3, §4, §5"}, "UXF 1138": {"system": "UXF 1138", "assay": "Cytotoxic activity, propidium iodide fluorescence assay, panel of 9 human cancer cell lines", "format": "cell-based", "settings": "UXF 1138 uterine body, 3-7 days", "experimental": "as §1, §2, §3, §4, §5"}, "HT29": {"system": "HT29", "assay": "Cytotoxic activity, propidium iodide fluorescence assay, panel of 9 human cancer cell lines", "format": "cell-based", "settings": "HT29 colon cancer, 3-7 days", "experimental": "as §1, §2, §3, §4, §5"}, "K562": {"system": "K562", "assay": "Cytotoxic activity, propidium iodide fluorescence assay, panel of 9 human cancer cell lines", "format": "cell-based", "settings": "K562 leukemia, 3-7 days", "experimental": "as §1, §2, §3, §4, §5"}, "MEXF 462NL": {"system": "MEXF 462NL", "assay": "Cytotoxic activity, propidium iodide fluorescence assay, panel of 9 human cancer cell lines", "format": "cell-based", "settings": "MEXF 462NL melanoma, 3-7 days", "experimental": "as §1, §2, §3, §4, §5"}, "MEXF 514L": {"system": "MEXF 514L", "assay": "Cytotoxic activity, propidium iodide fluorescence assay, panel of 9 human cancer cell lines", "format": "cell-based", "settings": "MEXF 514L melanoma, 3-7 days", "experimental": "as §1, §2, §3, §4, §5"}}, "note": "Marks after values point to notes of the source that are not given here."}
{"smiles": "O=[As][O-].[Na+]", "note": "[Sodium meta-arsenite, sodium meta-arsenite]", "values": [{"measurement": "BW loss % (day)", "setting": "ALL-SCID 4; 2 mg/kg p.o.", "result": "0 (44) %"}, {"measurement": "Drug-related deaths", "setting": "ALL-SCID 4; 2 mg/kg p.o.", "result": "0/8"}, {"measurement": "T/C %", "setting": "ALL-SCID 4; 2 mg/kg p.o., days 34-54 (⅓ MTD)", "result": "38* %"}, {"measurement": "T/C %", "setting": "ALL-SCID 4; 2 mg/kg p.o., days 34-54 (⅓ MTD), listed as sodium meta-arsenite", "result": 38, "unit": "%"}, {"measurement": "BW loss % (day)", "setting": "ALL-SCID 4; 4 mg/kg p.o.", "result": "+5 (44) %"}, {"measurement": "Drug-related deaths", "setting": "ALL-SCID 4; 4 mg/kg p.o.", "result": "0/8"}, {"measurement": "T/C %", "setting": "ALL-SCID 4; 4 mg/kg p.o., days 34-54 (⅔ MTD)", "result": "55* %"}, {"measurement": "T/C %", "setting": "ALL-SCID 4; 4 mg/kg p.o., days 34-54 (⅔ MTD), listed as sodium meta-arsenite", "result": 55, "unit": "%"}, {"measurement": "BW loss % (day)", "setting": "ALL-SCID 4; 6 mg/kg p.o.", "result": "+5 (44) %"}, {"measurement": "Drug-related deaths", "setting": "ALL-SCID 4; 6 mg/kg p.o.", "result": "0/8"}, {"measurement": "T/C %", "setting": "ALL-SCID 4; 6 mg/kg p.o., days 34-54 (MTD)", "result": "48* %"}, {"measurement": "T/C %", "setting": "ALL-SCID 4; 6 mg/kg p.o., days 34-54 (MTD), listed as sodium meta-arsenite", "result": 48, "unit": "%"}, {"measurement": "MTD", "setting": "ALL-SCID 4; small dose finding studies prior to the ALL-SCID 4 study", "result": 6, "unit": "mg/kg/day"}, {"measurement": "Body weight loss and lethality", "setting": "ALL-SCID 4; treated groups 2, 4, 6 mg/kg/day p.o.", "result": "not observed"}, {"measurement": "T/C % at drug concentration", "setting": "RXF 944L; 1 μg/ml", "result": 124, "unit": "%"}, {"measurement": "T/C % at drug concentration", "setting": "RXF 944L; 3 μg/ml", "result": 79, "unit": "%"}, {"measurement": "T/C % at drug concentration", "setting": "RXF 944L; 10 μg/ml", "result": 57, "unit": "%"}, {"measurement": "T/C % at drug concentration", "setting": "RXF 944L; 30 μg/ml", "result": 32, "unit": "%"}, {"measurement": "T/C % at drug concentration", "setting": "RXF 944L; 100 μg/ml", "result": 9, "unit": "%"}, {"measurement": "T/C % at drug concentration", "setting": "LXFL 529L; 1 μg/ml", "result": 79, "unit": "%"}, {"measurement": "T/C % at drug concentration", "setting": "LXFL 529L; 3 μg/ml", "result": 61, "unit": "%"}, {"measurement": "T/C % at drug concentration", "setting": "LXFL 529L; 10 μg/ml", "result": 21, "unit": "%"}, {"measurement": "T/C % at drug concentration", "setting": "LXFL 529L; 30 μg/ml", "result": 7, "unit": "%"}, {"measurement": "T/C % at drug concentration", "setting": "LXFL 529L; 100 μg/ml", "result": 4, "unit": "%"}, {"measurement": "T/C % at drug concentration", "setting": "U937; 1 μg/ml", "result": 3, "unit": "%"}, {"measurement": "T/C % at drug concentration", "setting": "U937; 3 μg/ml", "result": 3, "unit": "%"}, {"measurement": "T/C % at drug concentration", "setting": "U937; 10 μg/ml", "result": 2, "unit": "%"}, {"measurement": "T/C % at drug concentration", "setting": "U937; 30 μg/ml", "result": 2, "unit": "%"}, {"measurement": "T/C % at drug concentration", "setting": "U937; 100 μg/ml", "result": 1, "unit": "%"}, {"measurement": "T/C % at drug concentration", "setting": "CCRF-CEM; 1 μg/ml", "result": 48, "unit": "%"}, {"measurement": "T/C % at drug concentration", "setting": "CCRF-CEM; 10 μg/ml", "result": 43, "unit": "%"}, {"measurement": "T/C % at drug concentration", "setting": "CCRF-CEM; 100 μg/ml", "result": 29, "unit": "%"}, {"measurement": "T/C % at drug concentration", "setting": "UXF 1138; 1 μg/ml", "result": 107, "unit": "%"}, {"measurement": "T/C % at drug concentration", "setting": "UXF 1138; 3 μg/ml", "result": 114, "unit": "%"}, {"measurement": "T/C % at drug concentration", "setting": "UXF 1138; 10 μg/ml", "result": 103, "unit": "%"}, {"measurement": "T/C % at drug concentration", "setting": "UXF 1138; 30 μg/ml", "result": 95, "unit": "%"}, {"measurement": "T/C % at drug concentration", "setting": "UXF 1138; 100 μg/ml", "result": 30, "unit": "%"}, {"measurement": "T/C % at drug concentration", "setting": "HT29; 1 μg/ml", "result": 91, "unit": "%"}, {"measurement": "T/C % at drug concentration", "setting": "HT29; 3 μg/ml", "result": 60, "unit": "%"}, {"measurement": "T/C % at drug concentration", "setting": "HT29; 10 μg/ml", "result": 40, "unit": "%"}, {"measurement": "T/C % at drug concentration", "setting": "HT29; 30 μg/ml", "result": 22, "unit": "%"}, {"measurement": "T/C % at drug concentration", "setting": "HT29; 100 μg/ml", "result": 14, "unit": "%"}, {"measurement": "T/C % at drug concentration", "setting": "K562; 1 μg/ml", "result": 51, "unit": "%"}, {"measurement": "T/C % at drug concentration", "setting": "K562; 3 μg/ml", "result": 15, "unit": "%"}, {"measurement": "T/C % at drug concentration", "setting": "K562; 10 μg/ml", "result": 15, "unit": "%"}, {"measurement": "T/C % at drug concentration", "setting": "K562; 30 μg/ml", "result": 18, "unit": "%"}, {"measurement": "T/C % at drug concentration", "setting": "K562; 100 μg/ml", "result": 13, "unit": "%"}, {"measurement": "T/C % at drug concentration", "setting": "MEXF 462NL; 1 μg/ml", "result": 112, "unit": "%"}, {"measurement": "T/C % at drug concentration", "setting": "MEXF 462NL; 3 μg/ml", "result": 120, "unit": "%"}, {"measurement": "T/C % at drug concentration", "setting": "MEXF 462NL; 10 μg/ml", "result": 101, "unit": "%"}, {"measurement": "T/C % at drug concentration", "setting": "MEXF 462NL; 30 μg/ml", "result": 91, "unit": "%"}, {"measurement": "T/C % at drug concentration", "setting": "MEXF 462NL; 100 μg/ml", "result": 15, "unit": "%"}, {"measurement": "T/C % at drug concentration", "setting": "MEXF 514L; 1 μg/ml", "result": 120, "unit": "%"}, {"measurement": "T/C % at drug concentration", "setting": "MEXF 514L; 3 μg/ml", "result": 95, "unit": "%"}, {"measurement": "T/C % at drug concentration", "setting": "MEXF 514L; 10 μg/ml", "result": 98, "unit": "%"}, {"measurement": "T/C % at drug concentration", "setting": "MEXF 514L; 30 μg/ml", "result": 70, "unit": "%"}, {"measurement": "T/C % at drug concentration", "setting": "MEXF 514L; 100 μg/ml", "result": 21, "unit": "%"}]}
